Tests used:
[1] = system: arachidonic acid-induced aggregation of platelet rich plasma; assay: Arachidonic acid, platelet aggregation (412510); assay type: cell-based, rabbit; settings: for ANT. (antagonist response), arachidonic acid platelet aggregation / AG. (agonist response), arachidonic acid platelet aggregation: 30 μM, platelet rich plasma, rabbit; for AG. (agonist response), arachidonic acid platelet aggregation: relative to 100 μM arachidonic acid
Protocol: (§1) Test compounds referred to above were evaluated for inhibition of platelet aggregation induced by adenosine diphosphate, arachidonic acid, phorbol ester and Platelet Activating Factor (PAF) at […]. The following methods were employed in this analysis, and reference compounds for the respective assays are indicated in Appendix 1:
Venous blood obtained from male or female New Zealand derived albino rabbits weighting 2.5-3 kg was mixed with one-tenth volume of trisodeium citrate (0.13M) and centrifuged at room temperature for 10 min at 220 g. Test substance (30 μM)-induced aggregation of the supernatant platelet rich plasma by 50 percent or more (≧50%) within 5 min, relative to 100 μM arachidonic acid response at 37° C. as measured by an optical aggregometer indicates possible agonist activity.
At a test substance concentration where no significant agonist activity is seen, ability to reduce the arachidonic acid-induced maximum non-reversible aggregation response by 50 percent or more (>50%) was indicative of antagonist activity.

[2] = system: PAF-acether-induced aggregation of platelet rich plasma (PAF receptor); assay: PAF, platelet aggregation (463010); assay type: cell-based, rabbit; settings: for ANT. (antagonist response), PAF platelet aggregation / AG. (agonist response), PAF platelet aggregation: 30 μM, platelet rich plasma, rabbit; for AG. (agonist response), PAF platelet aggregation: relative to 5 nM PAF-acether
Protocol: as §1
Venous blood obtained from male or female New Zealand derived albino rabbits weighing 2.5-3 kg is mixed with one-tenth volume of trisodium citrate (0.13 M) and centrifuged at room temperture for 10 min at 220 g. Test Substance (30 μM)-induced aggregation of the supernatant platelet rich plasma by 50 percent or more (≧50%) within 5 min, relative to control 5 nM platelet activating factor-acether (PAF-acether) response at 37[…] as measured by an optical aggregometer, indicates possible PAF receptor agonist activity.
At a test substance concentration where no significant agonist activity is seen, ability to reduce the PAF-acether-induced maximum non-reversible aggregation response by 50 percent or more (≧50%) indicates PAF receptor antagonist activity.

[3] = system: PMA-induced aggregation of platelet rich plasma (phorbol ester receptor); assay: Phorbol ester, platelet aggregation (461500); assay type: cell-based, rabbit; settings: for ANT. (antagonist response), phorbol ester platelet aggregation / AG. (agonist response), phorbol ester platelet aggregation: 30 μM, platelet rich plasma, rabbit; for AG. (agonist response), phorbol ester platelet aggregation: relative to PMA 0.5 μM
Protocol: as §1
Venous blood obtained from male or female New Zealand derived albino rabbits weighing 2.5-3 kg is mixed with one-tenth volume of trisodium citrate (0.13 M) and centrifuged at room temperature for 10 min at 220 g. Test substance (30 μM)-induced aggregation of the supernatant platelet rich plasma by 50 percent or more (≧50%) within 5 min, relative to control phorbol myristate acetate (PMA, 0.5 μM) response at 37° C. as measured by an optical aggregometer, indicates possible phorbol ester receptor agonist activity.
At a test substance concentration where no significant agonist activity is seen, ability to reduce the PMA (0.5 μM)-induced maximum non-reversible aggregation response by 50 percent or more (>50%) indicates phorbol ester receptor antagonist activity.

[4] = system: adenosine diphosphate-induced aggregation of platelet rich plasma (ADP receptor); assay: Adenosine diphosphate, platelet aggregation (404010); assay type: cell-based, rabbit; settings: for ANT. (antagonist response), ADP platelet aggregation / AG. (agonist response), ADP platelet aggregation: 30 μM, platelet rich plasma, rabbit; for AG. (agonist response), ADP platelet aggregation: relative to […] ADP
Protocol: as §1
Venous blood obtained from male or female New Zealand derived albino rabbits weighing 2.5-3 kg was mixed with one-tenth volume of trisodium citrate (0.13 M) and centrifuged at room temperature for 10 min at 220 g. Test substance (30 EM)-induced aggregation of the supernatant platelet rich plasma by 50 percent or more (>50%) more relative to 1.2 μM adenosine diphosphate control response at 37° C. as mearsured by an optical aggregometer, indicates possible ADP receptor agonist activity.
At a test substance concentration where no significant agonist activity is seen, ability to reduce the adenosine diphosphate-induced maximum non-reversible aggregation response by 50 percent or more (≧50%) was indicative of ADP receptor antagonist activity.

thromboxane A2 synthase = biological target: T1, thromboxane A2 synthase (Oryctolagus cuniculus, UniProt G1TAZ9); assay: Thromboxane A2 synthase inhibition, TXB2 radioimmunoassay (194000); assay type: biochemical, rabbit; settings: screened at 100 μM
T1 sequence (G1TAZ9 1-530): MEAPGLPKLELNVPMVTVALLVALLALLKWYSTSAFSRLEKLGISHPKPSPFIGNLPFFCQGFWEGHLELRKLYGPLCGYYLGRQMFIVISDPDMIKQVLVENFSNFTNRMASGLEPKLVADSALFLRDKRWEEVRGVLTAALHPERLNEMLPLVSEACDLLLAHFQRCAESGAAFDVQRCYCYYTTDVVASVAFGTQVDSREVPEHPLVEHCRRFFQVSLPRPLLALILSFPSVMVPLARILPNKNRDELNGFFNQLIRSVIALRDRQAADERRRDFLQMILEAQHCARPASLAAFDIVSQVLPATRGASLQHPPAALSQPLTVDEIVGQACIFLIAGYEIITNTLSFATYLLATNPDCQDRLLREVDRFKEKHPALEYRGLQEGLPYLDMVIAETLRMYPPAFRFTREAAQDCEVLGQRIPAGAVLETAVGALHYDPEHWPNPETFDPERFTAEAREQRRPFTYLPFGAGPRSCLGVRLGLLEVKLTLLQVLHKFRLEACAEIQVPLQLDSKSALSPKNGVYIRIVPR
Protocol: Test compounds (IG-1 through IG-11) were evaluated for their ability to inhibit cyclooxygenase COX-1, cyclooxygenase COX-2, and thromboxane synthase. In these assays, in addition to the designations set forth above, IG-05 refers to resorcinol and IG-06 refers to orcinol.
To assess Thromboxane A2 synthase, thromboxane A2 synthase isolated from a microsomal fraction of rabbit platelets by conventional centrifugation was used. The test compound and/or vehicle was incubated with 1:200 dilution of thromboxane A2 synthase and 5 ng prostaglandin G2 as substrate in Tris buffer pH 7.5 for 30 minutes at 37° C. The thromboxane A2 formed is immediately converted to thromboxane B2, which was quantitated by a radioimmunoassay. Compounds are screened at 100 μM.

Cannabinoid CB1 = biological target: T2, Cannabinoid CB1 (Mus musculus, UniProt P47746); assay: Cannabinoid CB1 tissue assay, vas deferens (416000); assay type: cell-based
T2 construct: tissue 416000; host or cells: vas deferens
T2 sequence (P47746 whole entry): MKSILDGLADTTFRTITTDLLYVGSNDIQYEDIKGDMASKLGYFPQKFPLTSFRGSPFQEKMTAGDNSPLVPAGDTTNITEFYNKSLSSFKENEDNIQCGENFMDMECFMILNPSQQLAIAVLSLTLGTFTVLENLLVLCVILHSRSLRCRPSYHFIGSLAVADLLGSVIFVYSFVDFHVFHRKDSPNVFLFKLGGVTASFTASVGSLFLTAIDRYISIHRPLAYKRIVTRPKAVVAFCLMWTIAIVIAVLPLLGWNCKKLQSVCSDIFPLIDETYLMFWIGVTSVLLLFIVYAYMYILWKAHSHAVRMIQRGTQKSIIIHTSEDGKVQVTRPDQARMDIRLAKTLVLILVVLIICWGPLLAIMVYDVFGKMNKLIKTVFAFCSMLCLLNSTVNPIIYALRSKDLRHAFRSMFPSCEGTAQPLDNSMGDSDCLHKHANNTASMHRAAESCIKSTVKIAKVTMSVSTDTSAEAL

cyclooxygenase COX-1 = biological target: T3, cyclooxygenase COX-1 (Homo sapiens, UniProt P23219); assay: Cyclooxygenase COX-1 inhibition in human platelets, PGE2 EIA (116010); assay type: cell-based; settings: screened at 10 μM
T3 construct: host or cells: human platelets
T3 sequence (P23219 24-599): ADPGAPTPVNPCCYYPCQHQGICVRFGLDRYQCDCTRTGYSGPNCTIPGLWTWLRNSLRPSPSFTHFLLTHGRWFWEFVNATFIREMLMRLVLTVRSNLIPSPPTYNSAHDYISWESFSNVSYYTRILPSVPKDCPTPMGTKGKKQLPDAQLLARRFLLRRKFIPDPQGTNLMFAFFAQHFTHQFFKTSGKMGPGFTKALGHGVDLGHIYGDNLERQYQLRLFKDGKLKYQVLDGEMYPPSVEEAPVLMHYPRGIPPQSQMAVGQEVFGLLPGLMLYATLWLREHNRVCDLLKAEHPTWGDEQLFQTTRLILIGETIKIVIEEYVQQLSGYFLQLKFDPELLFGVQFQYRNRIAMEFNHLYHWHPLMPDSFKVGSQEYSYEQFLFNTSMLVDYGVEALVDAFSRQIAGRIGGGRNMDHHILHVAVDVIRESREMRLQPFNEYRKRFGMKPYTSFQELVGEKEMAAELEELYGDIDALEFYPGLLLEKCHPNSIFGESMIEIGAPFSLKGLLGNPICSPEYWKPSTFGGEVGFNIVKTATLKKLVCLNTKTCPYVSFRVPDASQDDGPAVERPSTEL
Protocol: In these assays, in addition to the designations set forth above, IG-05 refers to resorcinol and IG-06 refers to orcinol.
To assess COX-1 inhibition, test compound and/or vehicle was incubated with human platelets (5×10^7/well) for 15 minutes at5 37° C. Calcium ionophore A23187 (10 μM) was added to induce the arachidonic acid cascade. After another 15 minutes incubation at 37° C., PGE2 levels in the supernatant were quantiated using the Amersham EIA kit. Compounds were screened at 10 μM.

CC1=CCC2C(C1)c1c(O)cc(C(C)(C)CCCC(C)C)cc1OC2(C)C (stereo not drawn) [IG-9, 3-Norpentyl-3-(1,1,5-trimethylhexyl)-Δ 8-tetrahydrocannabinol]
ANT. (antagonist response), arachidonic acid platelet aggregation [1]: 0%
AG. (agonist response), arachidonic acid platelet aggregation [1]: 0%
ANT. (antagonist response), PAF platelet aggregation [2]: 4%
AG. (agonist response), PAF platelet aggregation [2]: 0%
ANT. (antagonist response), phorbol ester platelet aggregation [3]: 4%
AG. (agonist response), phorbol ester platelet aggregation [3]: 0%
ANT. (antagonist response), ADP platelet aggregation [4]: 7%
AG. (agonist response), ADP platelet aggregation [4]: 0%

CCCCC/C=C\C/C=C\C/C=C\C/C=C\CCCC(=O)O [Arachidonic Acid, reference compound]
Concurrent RESP., reference compound, arachidonic acid platelet aggregation - Agonist ([1]; 100 μM, batch 27731): 100

Cc1nnc2n1-c1sc(CCC(=O)N3CCOCC3)cc1C(c1ccccc1Cl)=NC2 [WEB-2086, reference compound]
Concurrent RESP., reference compound, PAF platelet aggregation - Antagonist ([2]; 0.3 μM, batch 27927): 97

Cc1ccc2c(c1)-c1c(O)cc(C(C)(C)CCCC(C)C)cc1OC2(C)C [IG-11, 3-Norpentyl-3-(1,1,5-trimethylhexyl)cannabinol]
Thromboxane synthase inhibition (in words) (thromboxane A2 synthase): significantly inhibit thromboxane synthase
ANT. (antagonist response), arachidonic acid platelet aggregation [1]: 0%
AG. (agonist response), arachidonic acid platelet aggregation [1]: 0%
AG. (agonist response), Cannabinoid CB1 (Cannabinoid CB1; 30 μM): 102%
ANT. (antagonist response), PAF platelet aggregation [2]: 11%
AG. (agonist response), PAF platelet aggregation [2]: 0%
ANT. (antagonist response), phorbol ester platelet aggregation [3]: 8%
AG. (agonist response), phorbol ester platelet aggregation [3]: 0%
ANT. (antagonist response), ADP platelet aggregation [4]: 0%
AG. (agonist response), ADP platelet aggregation [4]: 0%

CC(C)CCCC(C)(C)c1cc(O)cc(O)c1
melting point: 95 to 96 °C

Cc1cc(O)cc(O)c1 [IG-6, orcinol]
COX-1 inhibition (in words) (cyclooxygenase COX-1): potent inhibitors of COX-1

COc1cc(C(C)(C)CCCC(C)C)cc(OC)c1O [IG-2, 4-(1,1,5-trimethylhexyl)-2,6-dimethoxyphenol]
COX-1 inhibition (in words) (cyclooxygenase COX-1): potent inhibitors of COX-1

CCCCCCCCCCCCCCCCOC[C@H](COP(=O)([O-])OCC[N+](C)(C)C)OC(C)=O [PAF, platelet activating factor-acether, reference compound]
Concurrent RESP., reference compound, PAF platelet aggregation - Agonist ([2]; 5 nM, batch 27927): 100

Nc1nc(Cl)nc2c1ncn2[C@@H]1O[C@H](CO)[C@@H](O)[C@H]1O [2-Chloroadenosine, reference compound]
Concurrent RESP., reference compound, ADP platelet aggregation - Antagonist ([4]; 10 μM, batch 27737): 90

COc1cc(C(C)(C)CCCC(C)C)cc(OC)c1OC [IG-7, 1-(1,1,5-Trimethylhexyl)-3,4,5-trimethoxybenzene]
ANT. (antagonist response), arachidonic acid platelet aggregation [1]: 0%
AG. (agonist response), arachidonic acid platelet aggregation [1]: 0%
AG. (agonist response), Cannabinoid CB1 (Cannabinoid CB1; 30 μM): −106%
ANT. (antagonist response), Cannabinoid CB1 (Cannabinoid CB1; 30 μM): 100%
ANT. (antagonist response), PAF platelet aggregation [2]: 4%
AG. (agonist response), PAF platelet aggregation [2]: 0%
ANT. (antagonist response), phorbol ester platelet aggregation [3]: 9%
AG. (agonist response), phorbol ester platelet aggregation [3]: 0%
ANT. (antagonist response), ADP platelet aggregation [4]: 11%
AG. (agonist response), ADP platelet aggregation [4]: 0%

COc1ccc2c(c1)c(CC(=O)O)c(C)n2C(=O)c1ccc(Cl)cc1 [Indomethacin, reference compound]
Concurrent RESP., reference compound, arachidonic acid platelet aggregation - Antagonist ([1]; 0.3 μM, batch 27731): 100

CCCCC/C=C\C/C=C\C/C=C\C/C=C\CCCC(=O)NCCO [Anandamide, reference compound]
Concurrent RESP., reference compound, Cannabinoid CB1 - Agonist (Cannabinoid CB1; 0.1 μM, batch 27098): 100

CCCCCCCCCCCCCC(=O)O[C@@H]1[C@@H](C)[C@@]2(O)[C@@H](C=C(CO)C[C@]3(O)C(=O)C(C)=C[C@@H]23)[C@@H]2C(C)(C)[C@]12OC(C)=O [PMA, phorbol myristate acetate, reference compound]
Concurrent RESP., reference compound, phorbol ester platelet aggregation - Agonist ([3]; 0.5 μM, batch 27699): 100

CN[C@@H]1C[C@H]2O[C@@](C)([C@@H]1OC)n1c3ccccc3c3c4c(c5c6ccccc6n2c5c31)C(=O)NC4 [Staurosporine, reference compound]
Concurrent RESP., reference compound, phorbol ester platelet aggregation - Antagonist ([3]; 3 μM, batch 27699): 100
